Laboratory results: ChEMBL document CHEMBL1155691, “Novel extracellular diterpenoids with biological activity from the cyanobacterium Nostoc commune” (2000)
Converted amounts (≈) assume the structure as drawn.

Columns and labels:
Assay type in all cases: functional
[1] = test system: Escherichia coli; assay: Antimicrobial activity against Escherichia coli ATCC 25922
[2] = test system: Staphylococcus epidermidis; assay: Antimicrobial activity against Staphylococcus epidermidis ATCC 12228
[3] = test system: Bacillus cereus; assay: Antimicrobial activity against Bacillus cereus ATCC 10702
[4] = test system: KB; assay: Cytotoxicity against human KB cells
[5] = test system: Caco-2; assay: Cytotoxicity against human Caco-2 cells
[6] = test system: Biomphalaria glabrata; assay: Antimolluscicidal activity against Biomphalaria glabrata

`C[C@@H]1CC[C@@]2(C)[C@@H](CC[C@]3(C)[C@@H]2CC[C@@]3(C)C(=O)O)[C@]1(C)Cc1cc(C(=O)O)ccc1O` [COMNASTIN C] was tested, and the MIC [1] was 64 µg/mL (≈ 145 µM), the MIC [2] was 16 µg/mL (≈ 36.2 µM) and the MIC [3] was 32 µg/mL (≈ 72.3 µM).

`CC(=O)[C@@H]1CC[C@@H]2[C@@]3(C)CC[C@@H](C)[C@@](C)(Cc4cc(C(=O)O)ccc4O)[C@@H]3CC[C@]21C` [COMNASTIN E] was tested, and the MIC [2] was 4 µg/mL (≈ 9.38 µM) and the MIC [3] was 128 µg/mL (≈ 300 µM).

`CN(C)[C@@H]1C(O)=C(C(N)=O)C(=O)[C@@]2(O)C(O)=C3C(=O)c4c(O)cccc4[C@@](C)(O)[C@H]3C[C@@H]12` [TETRACYCLINE] was tested, and the MIC [1] was 64 µg/mL (≈ 144 µM).

Work on `COC(OC)[C@]1(C)CC[C@@H]2[C@@]3(C)CC[C@@H](C)[C@@](C)(Cc4cc(C(=O)O)ccc4O)[C@@H]3CC[C@]21C` [COMNASTIN D] yielded an MIC [1] of 128 µg/mL (≈ 271 µM), an MIC [2] of 32 µg/mL (≈ 67.7 µM) and an MIC [3] of 16 µg/mL (≈ 33.9 µM).

In the case of `COc1cc([C@@H]2c3cc4c(cc3[C@H](O)[C@H]3COC(=O)[C@H]23)OCO4)cc(OC)c1OC` [PODOFILOX], the MIC [4] is reported as 0.01 µg/mL (≈ 0.0241 µM) and the MIC [5] is reported as 0.02 µg/mL (≈ 0.0483 µM).

`C[C@@H]1CC[C@@]2(C)[C@@H](CC[C@]3(C)[C@@H]2CC[C@@]3(C)C=O)[C@]1(C)Cc1cc(C(=O)O)ccc1O` [COMNASTIN B] gave an MIC [1] of 128 µg/mL (≈ 300 µM), an MIC [4] of 0.4 µg/mL (≈ 0.938 µM) and an MIC [6] of 20 µg/mL (≈ 46.9 µM). The MIC [2] was 16 µg/mL (≈ 37.5 µM), the MIC [5] was 0.18 µg/mL (≈ 0.422 µM) and the MIC [3] was 32 µg/mL (≈ 75 µM).

`C[C@@H]1CC[C@@]2(C)[C@@H](CC[C@]3(C)[C@@H]2CC[C@@]3(C)CO)[C@]1(C)Cc1cc(C(=O)O)ccc1O` [COMNASTIN A] was tested, and the MIC [1] was 128 µg/mL (≈ 299 µM), the MIC [2] was 16 µg/mL (≈ 37.3 µM) and the MIC [3] was 32 µg/mL (≈ 74.7 µM).

`O=C(N[C@H](CO)[C@H](O)c1ccc([N+](=O)[O-])cc1)C(Cl)Cl` [CHLORAMPHENICOL] gave an MIC [2] of 4 µg/mL (≈ 12.4 µM) and an MIC [3] of 8 µg/mL (≈ 24.8 µM).
